Reference: ChEMBL document CHEMBL1201862, “PubChem BioAssay data set” (2004)
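Values below derive from 48-hour exposures of cells grown in 96-well plates, with endpoints linearly interpolated between the two concentrations bracketing the appropriate inhibition level. GI50: concentration for 50% inhibition of growth.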 The source made the active and inactive calls. No stated cut-off is given here; in the data, active = GI50 up to about 1.1 µM and inactive = higher.

Columns and labels:
Assay in all cases: inhibition of tumour cell growth, NCI panel, 48 h
[1] = test system: 786-0
[2] = test system: A498
[3] = test system: CAKI-1
[4] = test system: COLO 205
[5] = test system: DU-145
[6] = test system: HCC 2998
[7] = test system: HOP-92
[8] = test system: HT-29
[9] = test system: Malme-3M
[10] = test system: NCI-H522
[11] = test system: OVCAR-5
[12] = test system: SF-268
[13] = test system: SK-MEL-5
[14] = test system: SN12C
[15] = test system: SNB-75
[16] = test system: HL-60
[17] = test system: LOX IMVI
[18] = test system: SK-MEL-28
[19] = test system: T47D

Measured: GI50

CC(C)(CN1CCCCC1)C(=O)CC(SCCS(=O)(=O)O)c1ccccc1 (centres undefined)
inactive: [1] 11 µM | [2] 14.9 µM | [3] 15.5 µM | [4] 13.6 µM | [5] 11.2 µM | [6] 23.3 µM | [7] 5.64 µM | [8] 11.4 µM | [9] 12.7 µM | [10] 3.11 µM | [11] 11.6 µM | [12] 10 µM | [13] 16.3 µM | [14] 20 µM | [15] 20.4 µM

CCOC(=O)[C@H](CO)NC1=C(Cl)C(=O)c2c(O)ccc(O)c2C1=O
inactive: [1] > 10 µM | [3] > 10 µM | [4] 3.87 µM | [5] > 10 µM | [6] > 10 µM | [16] > 10 µM | [7] > 10 µM | [8] 5.33 µM | [17] > 10 µM | [9] > 10 µM | [10] > 10 µM | [11] > 10 µM | [12] > 10 µM | [18] > 10 µM | [13] > 10 µM | [14] > 10 µM | [15] > 10 µM | [19] > 10 µM

CCN(CC)CCN(/C(=N/c1ccccc1)N1CCOCC1)c1ccccc1
inactive: [1] > 100 µM | [3] > 100 µM | [4] 39.4 µM | [5] > 100 µM | [6] > 100 µM | [16] 18.2 µM | [8] 42.1 µM | [17] 44.6 µM | [9] > 100 µM | [10] > 100 µM | [12] > 100 µM | [18] > 100 µM | [13] > 100 µM | [14] > 100 µM | [15] > 100 µM | [19] > 100 µM

COc1ccc(NC(=S)NC(=O)c2ccc3c(c2)Sc2ccccc2O3)c([N+](=O)[O-])c1
inactive: [1] 17.9 µM | [2] 18.5 µM | [3] 39.1 µM | [4] > 100 µM | [5] 26.9 µM | [16] 32.7 µM | [7] 19.2 µM | [8] 76.6 µM | [17] > 100 µM | [9] 14.4 µM | [10] 14.9 µM | [11] > 100 µM | [12] 19.4 µM | [18] 40.1 µM | [13] 20.6 µM | [14] 35.1 µM | [15] 8.36 µM | [19] 22.4 µM

CC[N+](C)(CC)Cc1ccccc1[N+](=O)[O-]
inactive: [1] > 100 µM | [2] 41.2 µM | [3] > 100 µM | [4] 46 µM | [5] > 100 µM | [16] > 100 µM | [7] > 100 µM | [8] 36.1 µM | [17] > 100 µM | [9] > 100 µM | [10] > 100 µM | [11] > 100 µM | [12] 59.4 µM | [18] > 100 µM | [13] > 100 µM | [14] > 100 µM | [15] > 100 µM | [19] > 100 µM

CC(=O)Nc1nc2c(=O)c3ccccc3sc2s1
inactive: [1] > 100 µM | [2] > 100 µM | [3] > 100 µM | [4] > 100 µM | [5] > 100 µM | [16] > 100 µM | [8] > 100 µM | [11] > 100 µM | [12] > 100 µM | [13] > 100 µM | [14] > 100 µM | [15] > 100 µM | [19] > 100 µM

CCOC(=O)CCc1c(C(=O)OCC)[nH]c(/C=C2\NC(=O)C(C)=C2CC)c1C
inactive: [1] 14.5 µM | [3] 24.3 µM | [4] > 100 µM | [5] 19.3 µM | [16] > 100 µM | [7] 16.1 µM | [8] 50.7 µM | [17] 22.5 µM | [9] 10.4 µM | [10] 14.5 µM | [11] 25.6 µM | [12] 26.9 µM | [18] 51.8 µM | [14] 32.6 µM | [15] 13.5 µM | [19] 10.1 µM

OC(c1ccccc1)(c1cccnc1)C(O)(c1ccccc1)c1cccnc1 (centres undefined)
inactive: [1] > 100 µM | [3] > 100 µM | [4] > 100 µM | [5] > 100 µM | [16] > 100 µM | [7] > 100 µM | [8] > 100 µM | [9] > 100 µM | [10] 6.97 µM | [11] > 100 µM | [12] > 100 µM | [13] > 100 µM | [14] > 100 µM | [15] > 100 µM | [19] > 100 µM
